In ChEMBL document CHEMBL1255445, “Evaluation of nucleoside hydrolase inhibitors for treatment of African trypanosomiasis” (Antimicrob Agents Chemother, 2010):
The source made the active and inactive calls. No rule for the calls is given here.

Experiments:
Trypanosoma cruzi = experiment: Antitrypanosomal activity against Trypanosoma cruzi Tulahuen CL2 s-galactosidase strain assessed as reduction in parasite growth after 3 days by fluorometrically; format: functional, organism-based
[1] = test system: Trypanosoma brucei brucei; experiment: Antitrypanosomal activity against suramin sensitive Trypanosoma brucei brucei Lister 427 assessed as reduction in parasite growth after 3 days by fluorometrically; format: functional, organism-based; conditions: Lister 427, 72 h
[2] = Inhibition of Trypanosoma vivax Inosine-adenosine-guanosine-nucleoside hydrolase
Plasmodium falciparum = experiment: Antiparasitic activity against chloroquine-sensitive Plasmodium falciparum Ghana assessed as reduction in parasite growth after 3 days by fluorimetry; format: functional, organism-based
Leishmania infantum = experiment: Antileishmanial activity against Leishmania infantum MHOM/MA/67/ITMAP263 intracellular amastigotes assessed as reduction in parasite growth after 3 days by fluorometrically; format: functional, organism-based

Compound | IC50 [1] | Ki [2] | Activity (Trypanosoma cruzi) | Activity (Plasmodium falciparum) | Activity (Leishmania infantum)
OC[C@@H]1[C@@H](O)[C@@H](O)CN1Cc1ccc(I)cc1 | > 64 µM | 4.3 µM | inactive | inactive | inactive
Cc1nn(-c2ccccc2)nc1CN1C[C@H](O)[C@H](O)[C@H]1CO | > 64 µM | 0.063 µM | inactive | inactive | inactive
OC[C@@H]1[C@@H](O)[C@@H](O)CN1Cc1ccc(-n2cccc2)cc1 | 38 µM | 1 µM | inactive | inactive | inactive
O=[N+]([O-])c1cccc(CN2C[C@H](O)[C@H](O)[C@H]2CO)c1 | > 64 µM | 23 µM | inactive | inactive | inactive
OC[C@H]1NC[C@H](O)[C@@H]1O [IMINORIBITOL] | > 64 µM | 6 µM | inactive | inactive | inactive
OC[C@@H]1[C@@H](O)[C@@H](O)CN1Cc1cnc2ccccc2c1 | > 64 µM | 20 µM | inactive | inactive | inactive
N=C(N)Nc1ccc(CN2C[C@H](O)[C@H](O)[C@H]2CO)cc1 | > 64 µM | 7 µM | inactive | inactive | inactive
Cn1c(CN2C[C@H](O)[C@H](O)[C@H]2CO)nc2ccccc21 | – | 2.1 µM | inactive | inactive | inactive
OC[C@@H]1[C@@H](O)[C@@H](O)CN1Cc1cccc(-n2cccc2)c1 | 29 µM | 3.4 µM | inactive | inactive | inactive
OC[C@@H]1[C@@H](O)[C@@H](O)CN1CCc1c[nH]c2ccccc12 | 31 µM | 9.5 µM | inactive | inactive | inactive
CN1C(CCNC(=N)N)[C@H](O)[C@H](O)[C@H]1CO (stereo partly drawn) | – | 18 µM | inactive | inactive | inactive
COc1ccc(CN2C[C@H](O)[C@H](O)[C@H]2CO)cn1 | > 64 µM | 32 µM | inactive | inactive | inactive
OC[C@@H]1[C@@H](O)[C@@H](O)CN1Cc1ccc2ccccc2c1 | > 64 µM | 2 µM | inactive | inactive | inactive
OC[C@@H]1[C@@H](O)[C@@H](O)CN1Cc1ccnc2ccccc12 | > 64 µM | 29 µM | inactive | inactive | inactive
Cn1nnc2cc(CN3C[C@H](O)[C@H](O)[C@H]3CO)ccc21 | > 64 µM | 0.72 µM | inactive | inactive | inactive
OC[C@@H]1[C@@H](O)[C@@H](O)CN1Cc1ccc2ccccc2n1 | – | 0.18 µM | inactive | inactive | inactive

Second part, led by results:

IC50 [1] | Ki [2] | Compound | Activity (Trypanosoma cruzi) | Activity (Plasmodium falciparum) | Activity (Leishmania infantum)
> 64 µM | 1.3 µM | COc1ccc2cccc(CN3C[C@H](O)[C@H](O)[C@H]3CO)c2n1 | inactive | inactive | inactive
– | 26 µM | N#Cc1ccc(CN2C[C@H](O)[C@H](O)[C@H]2CO)cc1 | inactive | inactive | inactive
> 64 µM | 7.5 µM | O=[N+]([O-])c1ccc(CN2C[C@H](O)[C@H](O)[C@H]2CO)cc1 | inactive | inactive | inactive
> 64 µM | 71 µM | Cc1cc(N)c2cccc(CN3C[C@H](O)[C@H](O)[C@H]3CO)c2n1 | inactive | inactive | inactive
– | 20 µM | OC[C@@H]1[C@@H](O)[C@@H](O)CN1Cc1ccncc1 | inactive | inactive | inactive
– | 0.75 µM | OC[C@@H]1[C@@H](O)[C@@H](O)CN1Cc1nccc2ccccc12 | inactive | inactive | inactive
> 64 µM | 121 µM | Nc1ncccc1CN1C[C@H](O)[C@H](O)[C@H]1CO | inactive | inactive | inactive
> 64 µM | 3.8 µM | N#Cc1cccc(CN2C[C@H](O)[C@H](O)[C@H]2CO)c1 | inactive | inactive | inactive
> 64 µM | 1.2 µM | OC[C@@H]1[C@@H](O)[C@@H](O)CN1Cc1ccc(-n2cccn2)cc1 | inactive | inactive | inactive
48 µM | 6.7 µM | N=C(N)c1ccc(CN2C[C@H](O)[C@H](O)[C@H]2CO)cc1 | inactive | inactive | inactive
> 64 µM | 8.4 µM | Nc1ccc2cccc(CN3C[C@H](O)[C@H](O)[C@H]3CO)c2n1 | inactive | inactive | inactive
> 64 µM | 1.2 µM | OC[C@@H]1[C@@H](O)[C@@H](O)CN1Cc1ccc(-n2cncn2)cc1 | inactive | inactive | inactive
> 64 µM | 39.9 µM | N=C(N)NCCCN1C[C@H](O)[C@H](O)[C@H]1CO | inactive | inactive | inactive
49 µM | 1 µM | OC[C@@H]1[C@@H](O)[C@@H](O)CN1Cc1ccc2cccc(O)c2n1 | inactive | inactive | inactive
– | 58 µM | OC[C@@H]1[C@@H](O)[C@@H](O)CN1Cc1ccccc1 | inactive | inactive | inactive
> 64 µM | 187 µM | O=c1ccc2cccc(CN3C[C@H](O)[C@H](O)[C@H]3CO)c2[nH]1 | inactive | inactive | inactive
22 µM | 0.37 µM | Cc1cc(Cl)c2cccc(CN3C[C@H](O)[C@H](O)[C@H]3CO)c2n1 | inactive | inactive | inactive
> 64 µM | 286 µM | N=C(N)NCCN1C[C@H](O)[C@H](O)[C@H]1CO | inactive | inactive | inactive
> 64 µM | 43 µM | Cc1nc(-c2ccccc2)ncc1CN1C[C@H](O)[C@H](O)[C@H]1CO | inactive | inactive | inactive
